{"source": "patent US9446051B2", "about": "“Neuroprotection and myelin repair using nestorone®” (The Population Council, Inc., priority 2009, dated 2016)", "key": {"[1]": {"system": "primary hippocampal neuron cultures", "conditions": "cited from earlier work; for protection against glutamate toxicity: alone or in combination, 48 hours before glutamate insult"}, "[2]": {"system": "neural progenitor cell (NPC)", "assay": "Neural progenitor cell proliferation, BrdU chemiluminescence ELISA", "assay_type": "cell-based, rat", "conditions": "for proliferation of progenitor cells compared with progesterone: FIG. 3 and FIG. 4; for NPC proliferation (BrdU incorporation) compared with progesterone: at 24 hours, FIGS. 6A-D", "method": "In vitro studies were carried out to determine neural progenitor cell (NPC) regeneration in rats. Cell proliferation was determined by S phase incorporation of BrdU. After 4 to 6 hours starvation (medium without supplements), rNPCs were loaded with 10 μM BrdU in the presence or absence of bFGF and varying concentrations of P4 or test progestins in unsupplemented maintenance medium for 1d. The rNPCs were then processed as described previously (1, 14). After subtracting the value of the blank (without BrdU loading), data were analyzed using a one-way ANOVA, followed by a Neuman-Keuls post hoc test."}, "[3]": {"system": "primary hippocampal neurons", "assay": "Neuroprotection of primary hippocampal neurons against glutamate, LDH release", "assay_type": "cell-based", "conditions": "for neuroprotective efficacy against 200 μM glutamate (LDH release) compared with progesterone: dose-response, FIGS. 7A-F", "method": "The effect of NES and other progestins on CNS plasticity and the neuroprotective efficacy against glutamate toxicity has also been evaluated. LDH was measured, as a well-accepted assay, to determine such effect after exposure of the cells to glutamate, and the neuronal viability was assessed under the action of various progestins.\nComparisons of neuroprotection against neurodegenerative insults were carried out. Efficacy was determined in connection with the protection of primary hippocampal neurons against degeneration induced by excitoxic glutamate. Hippocampal neuronal cultures grown on […] culture plates for 7d in vitro were pretreated with vehicle alone or test compounds, followed by exposure to 200 μM glutamate as previously described (13). After glutamate exposure, cultures were washed with HEPES-buffered saline solution and replaced with fresh NBM containing the test compounds or combinations. Cultures were returned to the incubator and incubated for 24 hours prior to analysis of neuronal viability using colorimetric LDH release in the media. Dose-response analysis was conducted for each of the progestins tested, and the results are shown in FIGS. 7A-F. Neuroprotective efficiency was calculated as follows: NE=(Vsample−Vglutamate)/(Vsubcontrol−Vglutamate)."}, "[4]": {"system": "androgenic, estrogenic and glucocorticoid responses", "conditions": "cited from earlier work"}, "[5]": {"system": "organotypic neonatal rat or mouse cerebellar slice culture", "assay": "Myelination in organotypic cerebellar slice culture, measured by myelin basic protein (MBP) immunoreactivity", "assay_type": "cell-based", "excerpt": "In experiments conducted in organotypic neonatal rat or mouse cerebellar slice culture, progesterone accelerated axon myelination (13,14)."}, "[6]": {"system": "hippocampus of Sprague-Dawley ovariectomized female rats", "assay": "In vivo NPC proliferation and cell viability in ovariectomized rats (Western blot, FACS of BrdU+ cells)", "design": "species or system rat", "conditions": "for PCNA expression at the protein level: FIG. 8A", "method": "The generalized ability of the above in vitro findings to the in vivo condition were investigated. Analyses of NPC proliferation in rats and cell viability were conducted in three-month-old Sprague-Dawley ovariectomized female rats with various of the progestins. […] In order to assess the total number of BrdU+ cells, the contralateral hippocampal hemisphere used for protein analysis was fixed and processed by FACS analysis. The total number of BrdU+ cells per each hippocampus was determined and normalized to that of vehicle control. […] In order to measure cell viability in terms of promotion of mitochondrial function and reduction in oxidative damage expression of the alpha subunit of ATP synthase-Complex V (CVα) of the mitochondrial oxidative phosphorylation pathway was assessed by Western blot analysis."}, "Bax/Bcl-2": {"system": "Bax/Bcl-2", "assay": "In vivo apoptotic activity, Bax/Bcl-2 ratio by Western blot", "excerpt": "The effects of various progestins on apoptosis was studied using Western blot analysis to determine the expression level of Bax, an apoptosis mediator by […] to the mitochondria to release apoptotic factors such as cytochrome c and Bcl-2. The ratio of Bax to Bcl-2 was used as an indicator of in vivo apoptotic activity."}, "PR^lacz mice with MCAO": {"system": "PR^lacz mice with MCAO", "assay": "Transient middle cerebral artery occlusion (MCAO), steroid treatment after reperfusion", "assay_type": "in vivo, mouse", "method": "In experiments conducted using progesterone receptor (PR) deficient mice (PR^−/−) compared with PR^+/− and PR^+/+ mice and both progesterone and Nestorone® were administered after ischemia and reperfusion.\nIn order to test the effect of steroid treatments after reperfusion, adult male PR^lacz mice were anesthetized and the middle cerebral artery (MCA) was occluded for one hour with an intraluminal filament. After ligature of the left common carotid artery, a nylon monofilament coated with thermo-melting glue was introduced through an arteriotomy performed on the external carotid artery and advanced into the internal carotid artery. Occlusion of the MCA was controlled by monitoring the cerebral blood flow within the MCA territory by laser Doppler flowmetry. The filament was withdrawn one hour after occlusion to allow reperfusion, and the common carotid artery ligature was also removed. The mice were randomly and blindly assigned to either progesterone, allopregnanolone or Nestorone®, or vehicle-treated (sesame oil; sigma). All of the steroids were initially dissolved in a small volume of ethanol and further diluted in sesame oil to obtain the desired final steroid concentrations. Injections were given interperitoneally (IP) at 1, 6, and 24 hours after MCA occlusion (MCAO) according to established neuroprotective protocols. Treated mice were killed at 48 hours after MCAO.\nCerebral infarct volumes and areas were determined after triphenyltetrazolium chloride (TTC) staining of brain sections. The details of this procedure are set forth in “Progesterone Receptors: A Key For Neuroprotection In Experimental Stroke,” Endocrinology, August 2012, 153(8), pp. 1-11, which is incorporated herein by reference thereto in its entirety. […] In FIGS. 11, 12 and 13, after the administration of progesterone and Nestorone®, in neuronal density the infarct (FIG. 11) and the penumbra (FIG. 12) can clearly be shown. In FIG. 13 the decrease in […] in the penumbra after administration of progesterone and Nestorone® is also clearly shown."}, "[7]": {"system": "hippocampi of ovariectomized female Sprague Dawley rats", "assay_type": "in vivo", "conditions": "stated 'as noted above'", "method": "The impact of the combination of 17β-estradiol (E2) and various progestins on neurogenesis and cell viability […] was also carried out. Young adult ovariectomized female Sprague Dawley rates were thus divided into six groups and received injection of either E2 alone or E2 combined with one of the progestins. Hippocampi were isolated 24 hours later for Western blot analysis and flow cytometry to determine the impact of treatment on cell viability and neurogenesis respectively. The expression level of PCNA was assessed to determine the impact of the treatment compounds on entry into the cell cycle required for neurogenesis."}, "[8]": {"conditions": "indicator of in vivo apoptotic activity"}}, "data": [{"compound": "C[C@]12CC[C@@H]3c4ccc(O)cc4CC[C@H]3[C@@H]1CC[C@@H]2O", "note": "[estradiol, 17β-estradiol]", "values": [{"measurement": "protection against glutamate toxicity", "setting": "[1]", "value": "protected against glutamate toxicity"}]}, {"compound": "C#C[C@]1(OC(C)=O)CC[C@H]2[C@@H]3CCC4=CC(=NO)CC[C@@H]4[C@H]3CC[C@@]21CC", "note": "(mixture of isomers) [norgestimate]", "values": [{"measurement": "proliferation of progenitor cells compared with progesterone", "setting": "[2]", "value": "more proliferative than progesterone"}, {"measurement": "NPC proliferation (BrdU incorporation) compared with progesterone", "setting": "[2]", "value": "more potent in cell proliferation than progesterone at all concentrations"}, {"measurement": "neuroprotective efficacy against 200 μM glutamate (LDH release) compared with progesterone", "setting": "[3]", "value": "less potent than progesterone"}]}, {"compound": "C#C[C@]1(O)CC[C@H]2[C@@H]3CCC4=C(CCC(=O)C4)[C@H]3CC[C@@]21C", "note": "[norethynodrel]", "values": [{"measurement": "proliferation of progenitor cells compared with progesterone", "setting": "[2]", "value": "more proliferative than progesterone"}, {"measurement": "NPC proliferation (BrdU incorporation) compared with progesterone, high nanomolar ranges", "setting": "[2]; high nanomolar ranges", "value": "significantly more efficacious than progesterone"}, {"measurement": "NPC proliferation (BrdU incorporation) compared with progesterone, low nanomolar range", "setting": "[2]; low nanomolar range", "value": "comparable effects to progesterone"}, {"measurement": "neuroprotective efficacy against 200 μM glutamate (LDH release) compared with progesterone", "setting": "[3]", "value": "more potent than progesterone at minimal effective concentrations"}, {"measurement": "androgenic response", "setting": "[4]", "value": "exert androgenic and estrogenic responses"}, {"measurement": "estrogenic response", "setting": "[4]", "value": "exert androgenic and estrogenic responses"}]}, {"compound": "CC(=O)[C@H]1CC[C@H]2[C@@H]3CCC4=CC(=O)CC[C@]4(C)[C@H]3CC[C@]12C", "note": "[progesterone]", "values": [{"measurement": "concentration of equal promyelinating activity", "setting": "[5]; NES at 20 μm as active as PROG at 50 μm (FIG. 1)", "value": 50, "unit": "μm"}, {"measurement": "myelination in cerebellar slices from PR knockout mice", "setting": "[5]; PR knockout mice", "value": "did not increase myelination"}, {"measurement": "myelination measured by myelin basic protein (MBP) immunoreactivity", "setting": "[5]; cerebellar slice culture", "value": "promote dose-dependent myelination"}, {"measurement": "proliferation of progenitor cells compared with progesterone", "setting": "[2]", "value": "increases the proliferation"}, {"measurement": "NPC proliferation (BrdU incorporation) compared with progesterone", "setting": "[2]", "value": "comparably efficacious at their EC100 concentrations"}, {"measurement": "neuroprotective efficacy against glutamate toxicity (LDH)", "setting": "[3]; FIG. 5, NES and PROG at 10−7M", "value": "exerted the higher efficacy"}, {"measurement": "CDC2 protein expression", "setting": "[6]; Western blot", "value": "significantly increased"}, {"measurement": "ratio of Bax/Bcl-2 expression", "setting": "Bax/Bcl-2; [8]", "value": "no effect"}, {"measurement": "efficient neuroprotective dose", "setting": "PR^lacz mice with MCAO; after stroke", "value": 8, "unit": "mg/kg"}, {"measurement": "microglial density in the penumbra (neuroinflammatory responses)", "setting": "PR^lacz mice with MCAO; treatment after stroke", "value": "reduced microglial density"}, {"measurement": "neuronal density in the infarct and in the penumbra", "setting": "PR^lacz mice with MCAO; treatment after stroke", "value": "significantly increases the neuronal density"}, {"measurement": "protection against glutamate toxicity", "setting": "[1]", "value": "protected against glutamate toxicity"}]}, {"compound": "CC(=O)O[C@]1(C(C)=O)CC[C@H]2[C@@H]3C[C@H](C)C4=CC(=O)CC[C@]4(C)[C@H]3CC[C@@]21C", "note": "[MPA, medroxyprogesterone acetate]", "values": [{"measurement": "proliferation of progenitor cells compared with progesterone", "setting": "[2]", "value": "antagonistic"}, {"measurement": "NPC proliferation (BrdU incorporation) compared with progesterone", "setting": "[2]", "value": "significantly inhibited proliferation at multiple concentrations"}, {"measurement": "neuroprotective efficacy against 200 μM glutamate (LDH release) compared with progesterone", "setting": "[3]", "value": "less potent than progesterone"}, {"measurement": "total number of BrdU+ cells per hippocampus", "setting": "[6]; FACS, normalized to vehicle control, FIG. 8B", "value": "no significant effect on cell proliferation"}, {"measurement": "PCNA expression at the protein level", "setting": "[6]; Western blot", "value": "no significant effect"}, {"measurement": "expression of alpha subunit of ATP synthase-Complex V (CVα)", "setting": "[6]; Western blot, FIG. 8C", "value": "no significant effect"}, {"measurement": "ratio of Bax/Bcl-2 expression", "setting": "Bax/Bcl-2; in vivo", "value": "significantly increased"}, {"measurement": "cell proliferation", "setting": "[7]", "value": "increased cell proliferation"}, {"measurement": "androgenic response", "setting": "[4]", "value": "induce androgenic responses"}, {"measurement": "glucocorticoid response", "setting": "[4]", "value": "induces both androgenic and glucocorticoid responses"}, {"measurement": "protection against glutamate toxicity", "setting": "[1]", "value": "failed to protect against glutamate toxicity"}, {"measurement": "effect on estrogen-induced neuroprotection when coadministered", "setting": "[1]; coadministered with 17β-E2", "value": "attenuated the estrogen-induced neuroprotection"}]}, {"compound": "C#C[C@]1(O)CC[C@H]2[C@@H]3CCC4=CC(=O)CC[C@@H]4[C@H]3CC[C@@]21CC", "note": "[levonorgestrel]", "values": [{"measurement": "PCNA expression at the protein level", "setting": "[6]; Western blot", "value": "no significant effect"}, {"measurement": "ratio of Bax/Bcl-2 expression", "setting": "Bax/Bcl-2; [8]", "value": "significantly increased"}]}, {"compound": "C#C[C@]1(OC(C)=O)CC[C@H]2[C@@H]3CCC4=CC(=O)CC[C@@H]4[C@H]3CC[C@@]21C", "note": "[norethindrone acetate]", "values": [{"measurement": "proliferation of progenitor cells compared with progesterone", "setting": "[2]", "value": "antagonistic"}, {"measurement": "NPC proliferation (BrdU incorporation) compared with progesterone", "setting": "[2]", "value": "minimal or no effect on proliferation"}]}, {"compound": "C#C[C@]1(O)CC[C@H]2[C@@H]3CCC4=CC(=O)CC[C@@H]4[C@H]3CC[C@@]21C", "note": "[norethindrone]", "values": [{"measurement": "neuroprotective efficacy against 200 μM glutamate (LDH release) compared with progesterone", "setting": "[3]", "value": "less potent than progesterone"}, {"measurement": "androgenic response", "setting": "[4]", "value": "exert androgenic and estrogenic responses"}, {"measurement": "estrogenic response", "setting": "[4]", "value": "exert androgenic and estrogenic responses"}]}, {"compound": "CC(=O)[C@H]1CC[C@H]2[C@@H]3CCC4=CC(=O)CC[C@@H]4[C@H]3CC[C@]12C", "note": "[19-norprogesterone]", "values": [{"measurement": "protection against glutamate toxicity", "setting": "[1]", "value": "protected against glutamate toxicity"}]}]}
